The nature of series [1]: Kinetic aqueous solubility in PBS pH 7.4. The format is physicochemical. The note with it: phosphate buffered saline (PBS), 25 °C, aqueous buffer, kinetic from dmso stock. Here is the method: These promising compounds were evaluated in in vitro ADME assays (aqueous solubility, Caco-2 permeability, plasma protein binding, and hepatocyte stability) to determine their drug-like properties (Table 4).
Verapamil hydrochloride and tamoxifen were obtained from Sigma-Aldrich. All solvents were obtained from commercial sources and used without further purification. Hydrophilic PVDF 96-well filter plates ([…]), 2 mL 96-well assay block, and 96-well UV plates were purchased from Fisher Scientific.Test compound was prepared as a 10 mM stock solution in DMSO. Aqueous suspensions of test compound at 100 µM were prepared in assay buffers. The composition of phosphate buffered saline (PBS) is 0.1 M sodium phosphate, and 0.15 M sodium chloride, adjusted to pH 7.4. The suspensions were agitated at 200 rpm for 1 hour at 25 °C. The suspensions were transferred to a 0.45 µm hydrophilic PVDF 96-well filter plate mounted on a fresh 2 mL 96-well plate and were filtered by centrifugation at 3,000 rpm for 1 min. 150 µL of filtrates were transferred to 96-well UV plate for absorbance measurement. In order to determine the optimal wavelength for detection (λmax), the absorbance spectrum of the DMSO stock solution for each compound was recorded over a broad range of wavelengths (260–450 nm) using a UV/VIS plate reader (Molecular Devices Spectramax i3). To prepare calibration curves, a 1:1 serial dilution was performed on each compound starting at 100 µM to generate calibration solutions with concentrations ranging from […] to 100 µM. The UV absorbance of calibrants was measured at λmax for each compound. Concentration of each compound in the assay solution was calculated using the corresponding calibration curve. All assay measurements were performed in duplicate. […]

The nature of series [2]: Caco-2 permeability / efflux. The format is in vitro ADME. The note with it: human, Caco-2, pH 7.4; for efflux ratio at 120 min, 5 µM: Papp (B-to-A) / Papp (A-to-B). Here is the method:
P-gp Substrate Assessment using Caco-2 Monolayers
Caco-2 cells (clone C2BBe1) were obtained from American Type Culture Collection (Manassas, VA). Hanks’ balanced salt solution, valspodar and lucifer yellow were obtained from Sigma-Aldrich (St. Louis, MO). All solvents were obtained from commercial sources and used without further purification. Cell monolayers were grown to confluence on collagen-coated, microporous membranes in 12-well assay plates. Details of the plates and their certification are shown below. The permeability assay buffer was Hanks’ balanced salt solution (HBSS) containing 10 mM HEPES and 15 mM glucose at a pH of 7.4. The buffer in the receiver chamber also contained 1% bovine serum albumin. The dosing solution concentration was 5 μM of test article in the assay buffer +/- 1 μM valspodar. Cells were first pre-incubated for 30 minutes with HBSS containing +/- 1 μM valspodar. Cell monolayers were dosed on the apical side (A-to-B) or basolateral side (B-to-A) and incubated at 37°C with 5% CO2 in a humidified incubator. Samples were taken from the donor and receiver chambers at 120 minutes. Each determination was performed in duplicate. The flux of lucifer yellow was also measured post-experimentally for each monolayer to ensure no damage was inflicted to the cell monolayers during the flux period. All samples were assayed by LC-MS/MS using electrospray ionization.
LC-MS/MS Analysis using the PE Sciex API 4000 mass spectrometer […]
Column: Waters ACQUITY UPLC BEH Phenyl 30 × 2.1 mm, 1.7 µm
Mobile Phase Buffer: 25 mM ammonium formate buffer, pH 3.5
Aqueous Reservoir (A): 90% water, 10% buffer
Organic Reservoir (B): 90% acetonitrile, 10% buffer
Total Run Time: 1.00 minute
Autosampler: 10 µL injection volume
Wash1: water/methanol/2-propanol:1/1/1; with 0.2% formic acid
Wash2: 0.1% formic acid in water
Instrument: PE SCIEX API 4000
Interface: Turbo Ionspray
Mode: Multiple Reaction Monitoring (Negative ion mode)
Method: 1.0 minute duration
Mass Spectrometer Settings
Data Analysis and Calculations
The apparent permeability (Papp) and percent recovery were calculated as follows:
Papp = (dCr/dt) × Vr/(A × CA)
Percent recovery = 100 × ((V × Cfinal) + (V × Cfinal)) / (V × C ) […]
dCr/dt is the slope of the cumulative receiver concentration versus time in µM s-1;
Vr is the volume of the receiver compartment in cm3;
Vd is the volume of the donor compartment in cm3;
A is the area of the insert (1.13 cm2 for 12-well);
CA is the average of the nominal dosing concentration and the measured 120 minute donor concentration in μM;
CN is the nominal concentration of the dosing solution in μM;
Cfinal is the cumulative receiver concentration in μM at the end of the incubation period; […]
Cd is the concentration of the donor in μM at the end of the incubation period.
Efflux ratio (ER) is defined as Papp (B-to-A) / Papp (A-to-B). […]

Series [3] in a line: Plasma protein binding (RED dialysis), human. The format is in vitro ADME. The note with it: both sexes, pooled human plasma, pH 7.4. The source says:
(§1) Verapamil hydrochloride and tamoxifen were obtained from Sigma-Aldrich. […]
(§2) Pooled mixed gender human donor plasma, Sprague Dawley male rat plasma, CD-1 (ICR) male mouse plasma and male beagle dog plasma were obtained from Bioreclamation Inc. (Westbury, NY). Reusable Teflon base plate, RED Device inserts, and BupH Phosphate Buffered Saline packs (0.1 M sodium phosphate and 0.15 M sodium chloride when dissolved in 0.5 L water) were obtained from Thermo Scientific (Waltham, MA). Propranolol was obtained from Sigma-Aldrich (St. Louis, MO). All solvents were obtained from commercial sources and used without further purification.
(§3) Frozen plasma was thawed and the pH of plasma and BupH phosphate buffered saline was adjusted to 7.4 prior to dialysis. Into each well of a reusable Teflon 48-well base plate a RED insert was placed open end up. Ten microliters (10 µL) of the test compound (0.1 mM in acetonitrile/water, 1:1 v/v) was added to 990 µL of plasma to achieve 1 µM final concentration. The spiked plasma (200 µL) was added to the sample chamber, which is indicated by the red retainer ring (donor side). To the other side (receiver side), 350 µL of BupH phosphate buffered saline (pH 7.4) was added. A buffer-to-buffer assay was also performed to measure equilibrium across the membrane in the absence of plasma protein.
(§4) Propranolol was used as a positive control. All samples were prepared in triplicate. The RED device base plate was then sealed and placed in a shaking incubator set to maintain 37°C and 200 rpm for four hours.
(§5) After incubation, 100 µL of each sample was combined with an equal volume of either plasma or buffer, to create a similar matrix for all samples. Blank buffer was added to plasma samples, and vice versa. Samples from the incubation, along with the original compound-spiked plasma samples, were prepared for analysis in the same manner. Protein precipitation by addition of two parts of ice-cold acetonitrile to one part of reaction volume was carried out. To ensure complete protein precipitation samples were sealed and placed overnight at 4°C. The next morning samples were centrifuged at 3,600 rpm for 15 minutes. The supernatants (70 µL) were supplemented with an equal volume of internal standard solution (0.15 µM verapamil in water) and subjected to LC-MS/MS analysis.

Series [4] in a line: Plasma protein binding (RED dialysis), rat. The class given is in vitro ADME. The note with it: male, Sprague Dawley, pH 7.4.
Text: as §1, §2, §3, §4, §5

Series [5] can be described thus: Plasma protein binding (RED dialysis), mouse. The class given is in vitro ADME. The note with it: male, CD-1 (ICR), pH 7.4.
Text: as §1, §2, §3, §4, §5

This note sets out measurements from article PMC9611727, “Optimization of a Novel Mandelamide-Derived Pyrrolopyrimidine Series of PERK Inhibitors” (Pharmaceutics, 2022).

≈ marks a conversion by molar mass, not a printed value.

As for `Cc1nc(N)c2c(-c3ccc(NC(=O)[C@H](O)c4cc(F)cc(C(F)(F)F)c4)cc3C)cn(C)c2n1` [Compound 39], the kinetic solubility (commonly solubility judged after dilution from a stock solution rather than from solid) at 1 h in series [1] came to 10 µM (≈ 4.87 µg/mL). Besides, in series [2], the Papp A→B (in general, how fast a substance crosses the layer from the apical side) at 120 min, 5 µM is 160 nm/s. For the same compound, the efflux ratio – broadly, the permeability from basolateral to apical divided by that in the opposite direction, in the common usage – at 120 min, 5 µM in series [2] is 2. In addition, the fraction unbound – broadly, the share of the substance not bound to proteins or other matrix – at 4 h, 1 µM in series [3] is 0.001; in series [4], 0.001; in series [5], less than 0.001.
In series [1], `Cc1nc(N)c2c(-c3ccc(NC(=O)[C@H](O)c4cccc(Cl)c4)cc3F)cn(C)c2n1` [Compound 48] displayed a solubility (kinetic) at 1 h of 14 µM (≈ 6.16 µg/mL). This compound also registered an apparent permeability from apical to basolateral (Papp A→B) at 120 min, 5 µM in series [2] of 240 nm/s. The efflux ratio at 120 min, 5 µM in series [2] was 1.6. The fraction unbound at 4 h, 1 µM in series [3] is 0.001; in series [4], 0.004; in series [5] it was 0.002.
As for `Cc1nc(N)c2c(-c3ccc(NC(=O)[C@H](O)c4cccc(Cl)c4)cc3C)cn(C)c2n1` [Compound 28], the kinetic solubility at 1 h in series [1] was determined as 35 µM (≈ 15.3 µg/mL). This compound also gave a Papp A→B at 120 min, 5 µM in series [2] of 230 nm/s. In addition, the efflux ratio at 120 min, 5 µM in series [2] was found to be 1.9. In addition, the fraction unbound at 4 h, 1 µM is 0.002 in series [3], 0.003 in series [4] and less than 0.001 in series [5].
Compound `Cc1nc(N)c2c(-c3ccc(NC(=O)[C@H](O)c4cccc(F)c4)c(F)c3F)cn(C)c2n1` [Compound 70, (R)-N-(4-(4-amino-2,7-dimethyl-7H-pyrrolo[2,3-d]pyrimidin-5-yl)-2,3-difluorophenyl)-2-(3-fluorophenyl)-2-hydroxyacetamide] had a kinetic solubility at 1 h in series [1] of 66 µM (≈ 29.1 µg/mL). The Papp A→B at 120 min, 5 µM in series [2] amounted to 290 nm/s. Further, the efflux ratio at 120 min, 5 µM in series [2] was 1.7. Also, the fraction unbound at 4 h, 1 µM in series [3] is 0.006; in series [4], 0.007; in series [5], 0.003.
Regarding `Cc1nc(N)c2c(-c3ccc(NC(=O)[C@H](O)c4cccc(C(F)(F)F)c4)cc3C)cn(C)c2n1` [Compound 26], the kinetic solubility at 1 h in series [1] was found to be 19 µM (≈ 8.92 µg/mL). The compound also came in with an apical-to-basolateral permeability (Papp A→B) at 120 min, 5 µM in series [2] of 210 nm/s. Moreover, the efflux ratio at 120 min, 5 µM in series [2] came to 2.2. The fraction unbound at 4 h, 1 µM was 0.002 in series [3], 0.002 in series [4] and 0.001 in series [5].
Compound `Cc1nc(N)c2c(-c3ccc(NC(=O)[C@H](O)c4cccc(F)c4)cc3C)cn(C)c2n1` [Compound 24] displayed a solubility (kinetic) at 1 h in series [1] of 76 µM (≈ 31.9 µg/mL). In series [2], this compound had a Papp A→B at 120 min, 5 µM of 90 nm/s. Besides, in series [2], the efflux ratio at 120 min, 5 µM worked out at 5.2. Also, the unbound share (fraction unbound) at 4 h, 1 µM in series [3] was 0.008; in series [4], 0.009; in series [5], 0.006.
With `Cc1nc(N)c2c(-c3cc(F)c(NC(=O)[C@H](O)c4cccc(F)c4)cc3C)cn(C)c2n1` [Compound 66], the kinetic solubility at 1 h in series [1] was 61 µM (≈ 26.7 µg/mL). For the same compound, the Papp A→B at 120 min, 5 µM in series [2] was 240 nm/s. The efflux ratio at 120 min, 5 µM in series [2] came out at 1.5. For the same compound, the unbound share (fraction unbound) at 4 h, 1 µM in series [3] was 0.007; in series [4], 0.014; in series [5], 0.012.
Compound `Cc1nc(N)c2c(-c3ccc(NC(=O)[C@H](O)c4cc(F)cc(F)c4)cc3C)cn(C)c2n1` [Compound 38] registered a kinetic solubility at 1 h in series [1] of 19 µM (≈ 8.31 µg/mL). In addition, the Papp A→B at 120 min, 5 µM in series [2] came out at 190 nm/s. In addition, in series [2], the efflux ratio at 120 min, 5 µM came out at 1.9. In addition, the fraction unbound at 4 h, 1 µM is 0.01 in series [3], 0.009 in series [4] and 0.008 in series [5].
Compound `Cc1cc(F)cc([C@@H](O)C(=O)Nc2ccc(-c3cn(C)c4nc(C)nc(N)c34)c(C)c2)c1` [Compound 41] came in with a kinetic solubility at 1 h in series [1] of 24 µM (≈ 10.4 µg/mL). The compound further showed an apparent permeability from apical to basolateral (Papp A→B) at 120 min, 5 µM in series [2] of 200 nm/s. In series [2], the efflux ratio at 120 min, 5 µM is 2.5. Besides, the fraction unbound at 4 h, 1 µM in series [3] is 0.004; in series [4], 0.005; in series [5], 0.001.
Compound `Cc1nc(N)c2c(-c3ccc(NC(=O)[C@H](O)c4cccc(F)c4)c(F)c3C)cn(C)c2n1` [Compound 65] yielded a solubility (kinetic) at 1 h in series [1] of 58 µM (≈ 25.4 µg/mL). In series [2], this compound yielded a Papp A→B at 120 min, 5 µM of 260 nm/s. Moreover, the efflux ratio at 120 min, 5 µM in series [2] was 1.6. In addition, the unbound share (fraction unbound) at 4 h, 1 µM was 0.004 in series [3], 0.011 in series [4] and 0.007 in series [5].
